From patent US20240228493A1, “LRRK2 INHIBITORS AND USES THEREOF” (NEURON23, ICN., priority 2022, published 2024)

How the values were obtained:
[1] = test system: Caco-2 cells; assay: Caco-2 bidirectional permeability; format: in vitro ADME; conditions: for Caco-2 ER: Efflux Ratio=Papp(BA)/Papp(AB); for Caco-2 A2B (10^−6 cm/s): apical to basolateral; for Caco-2 A2B (10^−6 cm/s) / Caco-2 B2A (10^−6 cm/s): 2 hours, pH 7.4; for Caco-2 B2A (10^−6 cm/s): basolateral to apical
Experimental: The compounds disclosed herein were tested in vitro on CaCo2 cell penetration according to the following procedures.
Caco-2 cells purchased from ATCC were seeded onto […] (PET) in 96-well Corning Insert plates at 1×10^5 cells/cm^2. The media were refreshed every 4 to 5 days until the 21st to 28th day for confluent cell monolayer formation.
Experiments were run in duplicate using a HBSS transport buffer containing 10 mM HEPES at pH 7.4. The test article TEST COMPOUND was tested bi-directionally at […] concentrations, the control compound digoxin was tested bi-directionally at 10 μM, and nadolol and metoprolol were tested at 2.0 μM in the A to B direction. Final DMSO concentrations were adjusted to less than 1%. The plates were incubated for 2 hours in a CO2 incubator at 37±1° C. with 5% CO2 at saturated humidity without shaking. Following incubation, samples were mixed with acetonitrile containing internal standard and centrifuged at 3200×g for 10 minutes. Then 200 μL of supernatant was taken from all samples. For TEST COMPOUND and digoxin, the supernatant was diluted with 200 μL of ultra-pure water and for nadolol and metoprolol, the supernatant was diluted with 600 μL of ultra-pure water. All samples were analyzed by LC-MS/MS. Concentrations of TEST COMPOUND and control compounds were determined in starting solutions, donor well solutions, and receiver well solutions using peak area ratios (PAR) of analyte to internal standard. After the transport assay, a lucifer yellow rejection assay was run to determine the Caco-2 cell monolayer integrity.
The apparent permeability (Papp), the % recovery and the efflux ratio were calculated as follows:
Papp=(dCr/dt)×Vr/(A×C0) 1.
Efflux Ratio=Papp(BA)/Papp(AB) 3. • Where: • dCr/dt is the slope of the cumulative concentration in the receiver compartment versus time (mM/s). • Vr and Vd is the volume in the receiver and donor compartments (0.075 mL on the apical side, 0.25 mL on the basolateral side), respectively. • A is the surface area of the cell monolayer (0.0804 cm^2). • C0 is the measured donor concentrations (μM) at the beginning of the experiment. • Cd and Cr are the final measured concentrations in the donor and receiver compartments, respectively.

[2] = test system: human hepatocyte; assay: Human hepatocyte stability, predicted hepatic clearance (h-Hept CL predict); format: in vitro ADME; conditions: human hepatocytes, 0.5×10^6 cells/mL, 1 μM, values without asterisk
Experimental: The compounds disclosed herein were tested in vitro on human hepatocyte for in vitro h-Hept CL predict according to the following procedures. • 1. Compound sock solutions were prepared by dissolving test compound and positive control in dimethyl sulfoxide (DMSO) at a concentration of 10 mM. Stock solutions were then diluted to 100 μM solutions by combining 198 μL of 50% acetonitrile/50% water with 2 μL of the 10 mM stock in separate conical tubes. • 2. Cryopreserved hepatocytes were prepared as follows: Incubation medium (William's E Medium supplemented with GlutaMAX) and hepatocyte thawing medium were placed in a 37° C. water bath and allowed to warm for at least 15 minutes prior to use. Cryopreserved hepatocytes were removed from storage, ensuring that vials remained at cryogenic temperatures until thawed. Cells were thawed by placing the vials in a 37° C. water bath and gently shaking the vials for 2 minutes. After thawing was completed, vials were sprayed with 70% ethanol and transferred to a biosafety cabinet. Hepatocytes were transferred into 50 mL conical tube containing thawing medium using wide-bore pipette tips. Tubes were placed into a centrifuge and spun at 100 g for 10 minutes. Then thawing medium was aspirated and hepatocytes were resuspended in enough incubation medium to yield ˜1.5×10^6 cells/mL. Cells were counted using acridine orange and propidium iodide (AO/PI) staining, and the viable cell density was determined. Cells were diluted with incubation medium to a working cell density of 0.5×10^6 viable cells/mL. • 3. To determine hepatocyte stability, 198 μL of hepatocytes were transferred into each well of a 96-well non-coated plate. Plates were placed in an incubator to allow the hepatocytes to warm for 10 minutes. • 4. The reaction was started by transferring 2 μL of the 100 μM test compound or positive control solution into respective wells of the 96-well non-coated plates. Plates were returned to the incubator until 25 μL aliquots of well contents were sampled at time points of 0, 15, 30, 60, 90 and 120 minutes. The aliquots were then mixed with 6 volumes (150 μL) of acetonitrile containing internal standard, IS (100 nM alprazolam, 200 nM caffeine and 100 nM tolbutamide) to terminate the reaction and vortexed for 5 minutes. After centrifuging the samples for 45 minutes at 3,220 g, aliquots of 100 μL of the supernatant were taken and diluted with 100 μL of ultra-pure water. The mixture was used for LC/MS/MS analysis. All incubations were performed in duplicate.
All calculations were carried out using Microsoft Excel. Peak area ratios (PAR) were determined from extracted ion chromatograms. The in vitro half-life (t1/2) of parent compound was determined by regression analysis of the percent parent disappearance vs. time curve as follows:
Conversion of the in vitro t1/2 (in minutes) into the in vitro intrinsic clearance (in vitro CLint, in μL/min/1×10^6 cells) was done using the following equation (mean of duplicate determinations): […]
The scaled-up intrinsic clearance (CLint, mL/min/kg), predicted hepatic clearance (CLH, mL/min/kg) and hepatic extraction ratio (ER) were calculated using the following equations:
CLint=(0.693/t1/2)*(1/(hepatocyte concentration (0.5*10^6 cells/mL)))*scaling factors (Table (A) Appendix Table 1)
CLHept-predict=(QH*Scaled-up CLint*fub)/(QH+Scaled-up CLint*fub)
ER=CLH/QH • Where: • V=incubation volume (0.2 mL) • N=number of hepatocytes per well (0.1*10^6 cells) • QH=hepatic blood flow (mL/min/kg) (Table (A) Appendix Table 1) • fub=fraction of unbound drug in plasma, assumed to be 1

[3] = molecular target: T1, wt human LRRK2, catalytic site (Homo sapiens, UniProt Q5S007); assay: TR-FRET LanthaScreen Tb Kinase Activity Assay, LRRK2 inhibition; format: biochemical; conditions: 2 nM wt human LRRK2, 400 nM peptide, 38 μM ATP
T1 construct: wt human LRRK2, catalytic site, catalytic site (ThermoFisher/USA); purchased ThermoFisher
Experimental: The compounds disclosed herein were tested for their inhibitory effect on LRRK2 kinase according to the following procedures.
The protocol for basic TR-FRET LanthaScreen Tb Kinase Activity Assay inhibitor studies were as follows. LanthaScreen Kinase Activity Assays (ThermoFisher/USA) to evaluate inhibitors were performed by addition of 100 nL of test compound in corresponding DMSO dilutions/5 μL of kinase/fluorescein-ERM (LRRKtide) peptide mixture, Compound & kinase were pre-incubated for 15 minutes, then 5 μl of ATP into 384 well small volume plates. After incubation for 120 minutes at room temperature, the detection reagents containing Tb-anti-pLRRKtide antibody were added to monitor phosphorylation level of peptide. Then, after 60 min minutes incubation at room temperature plates were read in Envision. Data analysis of emission ratios was according to LanthaScreen Tb Kinase Activity Assay protocol.
Kinase and assay components were adjusted to final concentrations according to the kit protocol. For LRRK2: 2 nM wt human LRRK2, catalytic site, catalytic site (ThermoFisher/USA), 400 nM peptide, 38 μM ATP in 1× Kinase Buffer A. […]
Kinase and assay components were adjusted to final concentrations according to the kit protocol.

T1 sequence (Q5S007 1879-2138 limits assumed): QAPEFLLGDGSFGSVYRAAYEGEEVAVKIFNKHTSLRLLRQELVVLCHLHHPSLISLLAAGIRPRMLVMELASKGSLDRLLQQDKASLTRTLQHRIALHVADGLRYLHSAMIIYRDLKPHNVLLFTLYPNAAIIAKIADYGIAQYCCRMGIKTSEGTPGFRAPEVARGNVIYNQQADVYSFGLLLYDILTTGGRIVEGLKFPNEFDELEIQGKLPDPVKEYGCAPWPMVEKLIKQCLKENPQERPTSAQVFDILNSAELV

| SMILES | Caco-2 ER [1] | Caco-2 A2B (10^−6 cm/s) [1] | Caco-2 B2A (10^−6 cm/s) [1] | hHep Cl (mL/min/kg) [2] | IC50 [3] [nM] |
| --- | --- | --- | --- | --- | --- |
| OCc1cc(F)c(C2=Nc3c(Cl)n[nH]c3-c3cc(N4CCOCC4)ncc3N2)c(F)c1 [Example 22, (4-(3-chloro-9-morpholino-1,6-dihydropyrazolo[4,3-d]pyrido[4,3-f][1,3]diazepin-5-y1)-3,5-difluorophenyl)methanol] | L (L (Likely)”: ER≥2.5) | L (L (Low permeability)”: A2B (B2A)<1) | H (H (High permeability)”: A2B (B2A)>5) | I (I (Intermediate Cl)”: 6.3≤Hep Cl (mL/min/kg)≤14.7) | < 1 |
| Cc1n[nH]c2c1N=C(c1c(F)cccc1F)Nc1cnc(-c3cn[nH]c3)cc1-2 [Example 29, 8-(2,6-difluorophenyl)-5-methyl-13-(1H-pyrazol-4-y1)-3,4,7,9,12-pentazatricyclo[8.4.0.02,6]tetradeca-1(10),2(6),4,7,11,13-hexaene] | L (L (Likely)”: ER≥2.5) | L (L (Low permeability)”: A2B (B2A)<1) | H (H (High permeability)”: A2B (B2A)>5) | L (L (Low Cl)”: Hep Cl (mL/min/kg)<6.3) | < 1 |
| Cc1n[nH]c2c1N=C(c1c(F)cccc1F)Nc1cnc(N3CCNC4(COC4)C3)cc1-2 [Example 7, 8-[8-(2,6-difluorophenyl)-5-methyl-3,4,7,9,12-pentazatricyclo[8.4.0.02,6]tetradeca-1(10),2(6),4,7,11,13-hexaen-13-y1]-2-oxa-5,8-diazaspiro[3.5]nonane] | L (L (Likely)”: ER≥2.5) | L (L (Low permeability)”: A2B (B2A)<1) | H (H (High permeability)”: A2B (B2A)>5) | L (L (Low Cl)”: Hep Cl (mL/min/kg)<6.3) | < 1 |
| Cc1n[nH]c2c1N=C(c1c(F)cccc1F)Nc1cnc(N3CCO[C@@]4(CCOC4)C3)cc1-2 (single isomer, unassigned) [Example 3] | L (L (Likely)”: ER≥2.5) | M (M (Moderate permeability)”: 1≤A2B (B2A)≤5) | H (H (High permeability)”: A2B (B2A)>5) | L (L (Low Cl)”: Hep Cl (mL/min/kg)<6.3) | < 1 |
| Cc1n[nH]c2c1N=C(c1c(F)cccc1F)Nc1cnc(N3CCCOCC3)cc1-2 [Example 9, 4-[8-(2,6-difluorophenyl)-5-methyl-3,4,7,9,12-pentazatricyclo[8.4.0.02,6]tetradeca-1(10),2(6),4,7,11,13-hexaen-13-y1]-1,4-oxazepane] | L (L (Likely)”: ER≥2.5) | M (M (Moderate permeability)”: 1≤A2B (B2A)≤5) | H (H (High permeability)”: A2B (B2A)>5) | L (L (Low Cl)”: Hep Cl (mL/min/kg)<6.3) | 1 to 100 |
| CCS(=O)(=O)N1CCN(c2cc3c(cn2)NC(c2c(F)cccc2F)=Nc2c(C)n[nH]c2-3)CC1 [Example 11, 8-(2,6-difluorophenyl)-13-(4-ethylsulfonylpiperazin-1-y1)-5-methyl-3,4,7,9,12-pentazatricyclo[8.4.0.02, 6]tetradeca-1(10),2(6),4,7,11,13-hexaene] | L (L (Likely)”: ER≥2.5) | L (L (Low permeability)”: A2B (B2A)<1) | H (H (High permeability)”: A2B (B2A)>5) | I (I (Intermediate Cl)”: 6.3≤Hep Cl (mL/min/kg)≤14.7) | < 1 |
| Cc1n[nH]c2c1N=C(c1c(F)cccc1F)Nc1cnc(N3CCOC4(COC4)C3)cc1-2 [Example 5, 8-[8-(2,6-difluorophenyl)-5-methyl-3,4,7,9,12-pentazatricyclo[8.4.0.02,6]tetradeca-1(10),2(6),4,7,11,13-hexaen-13-y1]-2,5-dioxa-8-azaspiro[3.5]nonane] | L (L (Likely)”: ER≥2.5) | L (L (Low permeability)”: A2B (B2A)<1) | H (H (High permeability)”: A2B (B2A)>5) | L (L (Low Cl)”: Hep Cl (mL/min/kg)<6.3) | < 1 |
| Cc1nc(N2CCC[C@@H](C#N)C2)cc2c1NC(c1c(F)cccc1F)=Nc1cn[nH]c1-2 [Example 47, (R)-1-(5-(2,6-difluorophenyl)-7-methyl-1,6-dihydropyrazolo[4,3-d]pyrido[4,3-f][1,3]diazepin-9-y1)piperidine-3-carbonitrile] | L (L (Likely)”: ER≥2.5) | M (M (Moderate permeability)”: 1≤A2B (B2A)≤5) | H (H (High permeability)”: A2B (B2A)>5) | H (H (High Cl)”: Hep Cl (mL/min/kg)>14.7) | < 1 |
| COC[C@H]1CN(c2cc3c(cn2)NC(c2c(F)cccc2F)=Nc2c(C)n[nH]c2-3)CCO1 [Example 15, (2R)-4-[8-(2,6-difluorophenyl)-5-methyl-3,4,7,9,12-pentazatricyclo[8.4.0.02,6]tetradeca-1(10),2(6),4,7,11,13-hexaen-13-y1]-2-(methoxymethyl)morpholine] | L (L (Likely)”: ER≥2.5) | M (M (Moderate permeability)”: 1≤A2B (B2A)≤5) | H (H (High permeability)”: A2B (B2A)>5) | L (L (Low Cl)”: Hep Cl (mL/min/kg)<6.3) | 1 to 100 |
